# Assay results published in US20260226417A1, “METHOD FOR INHIBITING AGING OF STEM CELLS” (ENCELL CO., LTD, priority 2023, published 2026).
# Tests used:
# [1] = system: replicative senescence model of human umbilical cord-derived mesenchymal stem cells (P18); assay: Cytotoxicity by CCK-8 assay, replicative senescence model (P18); type: cell-based; conditions: 160 μM, P18, CCK-8
# [2] = system: mesenchymal stem cell-positive markers CD44, CD73, CD90, CD105, CD166 and negative markers CD11b, CD14, CD19, CD34, CD45, HLA-DR; assay: Stemness analysis by FACS in replicative senescence model (P18); type: cell-based, human; conditions: 160 μM, 3 days
# Experimental: Example 6. Comparative analysis of stemness of gut microbiota-derived metabolite for senescence control A replicative senescence model (P18) was treated with nervonic acid (160 μM) to assess the effect thereof on stemness and adipogenesis.
# The replicative senescence model (P18) was treated with nervonic acid (160 μM), and the expression changes of the mesenchymal stem cell-positive markers CD44, CD73, CD90, CD105, and CD166, as well as the mesenchymal stem cell-negative markers CD11b, CD14, CD19, CD34, CD45, and HLA-DR were confirmed through FACS.
# Specifically, 3.6×10^6 cells treated with nervonic acid (160 μM) for 3 days were centrifuged, suspended in 1.2 ml of FACS buffer (PBS 98%+FBS 2%), and allowed to stand at room temperature for 30 minutes. Thereafter, 100 ul thereof was dispensed into each of 11 1.5 ml tubes (3×10^5 cells per tube), and a predetermined amount of antibody was added to each tube, followed by reaction at room temperature for 20 minutes in a light-blocking state. After washing by adding 200 μl of FACS buffer, centrifugation was performed at room temperature at 300 g for 5 minutes, the supernatant was removed, and the cells were suspended in 500 μl of FACS buffer and then transferred to a FACS tube for analysis.
# [3] = system: control cells (P5), human umbilical cord-derived mesenchymal stem cells; assay: Cytotoxicity by CCK-8 assay, control cells (P5); type: cell-based; conditions: 160 μM
# [4] = system: replicative senescence model of human umbilical cord-derived mesenchymal stem cells (P18); assay: Cell size measurement, replicative senescence model (P18); type: cell-based; conditions: 160 μM, 3 days
# Experimental: Example 4. Validation of gut microbiota-derived metabolite candidate for senescence control Control cells (P5) and replicative senescence-induced human umbilical cord-derived mesenchymal stem cells (P18) were treated with nervonic acid (160 μM) to analyze the effects of the gut microbiota-derived metabolite having the ability to control senescence of stem cells on the proliferation of stem cells and cell size.
# In addition, since cells have the characteristic of undergoing hypertrophy during the progression of cellular senescence, cell sizes were compared.
# [5] = system: SASP markers IL-6, MMP3, IGFBP3, IGFBP5, IGFBP7; assay: qRT-PCR of SASP markers at P10 after treatment at each passage; type: cell-based, human; conditions: 160 μM for 24 hours at each passage
# Experimental: (§1) Specifically, qRT-PCR performed in this example is as follows: after treating the replicative senescence model (P18) with nervonic acid for 3 days, total RNA was extracted using Trizol (Invitrogen, MA, USA) according to the method provided by the vendor. After quantifying the extracted total RNA, random hexamer and dNTP were added, and PCR was performed at 65° C. for 5 minutes. 5× SSIV buffer, 100 mM DTT, RNAse OUT, and Superscript IV RT were added and reverse transcription was performed to synthesize cDNA, and then qRT-PCR was performed to measure gene expression, and the expression levels were compared through 2^−ΔΔCt analysis.
# Example 8. Confirmation Of anti-senescence efficacy by treating various human tissue-derived mesenchymal stem cells with nervonic acid Human-derived mesenchymal stem cells were treated with nervonic acid (160 μM) at each passage during cell culture from control cells (P5) to P10 to determine whether continuous treatment with nervonic acid during cell culture at early passage numbers was able to delay cellular senescence.
# Specifically, from the day after human-derived mesenchymal stem cells were subcultured, treatment with 160 μM nervonic acid or an equivalent amount of DMSO (control) for 24 hours was performed, followed by replacement with the existing culture medium the next day. The above process was repeated to perform subculture up to P10 (passage 10). As such, B galactosidase staining for measuring cellular senescence was performed at P7, P8, P9, and P10, and cell doubling time and RNA extraction for qRT-PCR were both performed at P10. A more specific procedure therefor was carried out in the same manner as described above.
# [6] = system: replicative senescence model of human umbilical cord-derived mesenchymal stem cells (P18); assay: Screening of gut microbiota-derived metabolite library for senescence control (primary HTS and secondary cell viability screening); type: cell-based
# Excerpt: Example 2. Screening of gut microbiota-derived metabolites for senescence control of human umbilical cord-derived mesenchymal stem cells In order to determine differences in metabolite reactivity depending on the senescence status of human umbilical cord-derived mesenchymal stem cells, a library of 485 gut microbiota-derived metabolites was used to select candidates that inhibit the proliferation or cause death of replicative senescent stem cells.
# Thereby, 13 candidates showing low viability only in the replicative senescence model (P18) without affecting the viability of the control cells (P5) were selected by primary screening, and the experimental group was treated with the metabolite at 25 μM, 50 μM, 100 μM, 200 μM, 300 μM, 400 μM, and 500 μM to determine the optimal concentration of the metabolite by secondary screening, analyzing the senescence control effect at a total of 7 metabolite concentrations.
# [7] = system: human placenta-derived mesenchymal stem cells (PL-MSCs/passage 18); assay: β-galactosidase staining, senescent PL-MSCs; type: cell-based; conditions: PL-MSCs passage 18, 3 days
# Excerpt: Human placenta-derived mesenchymal stem cells (pl-mscs) Were Isolated From Placentas Separated according to the previously reported method of Choi et al. (PLOS ONE, (2017) 12 (2): e0172642), umbilical cord blood-derived mesenchymal stem cells (UCB-MSCs) were isolated from the umbilical cord blood separated according to the method of Kim et al. (FEBS Letters, (2010) 584:3601-3608), and adipose tissue-derived mesenchymal stem cells (AD-MSCs) were isolated from adipose tissue separated according to the previously reported method of Palumbo et al. (Int. J. Mol. Sci. (2018) 19:1987).
# Each of the obtained mesenchymal stem cells was subcultured in aMEM (a-modified Minimum Essential Media) containing 10% fetal bovine serum (FBS) and 0.5% gentamicin (10 mg/ml).
# The replicative senescence models of human adipose-derived mesenchymal stem cells (AD-MSCs/passage 18), human bone marrow-derived mesenchymal stem cells (BM-MSCs/passage 15), human umbilical cord blood-derived mesenchymal stem cells (UCB-MSCs/passage 16), and human placenta-derived mesenchymal stem cells (PL-MSCs/passage 18) established as described above were treated with nervonic acid for 3 days, and β-galactosidase staining was performed to observe the extent of senescence.
# [8] = system: SASP (senescence-associated secretory phenotype) markers MMP3, IGFBP5, IGFBP7; assay: qRT-PCR of SASP markers in replicative senescence model (P18); type: cell-based, human; conditions: 160 μM, 3 days
# Experimental: Additionally, there is a report in which the gene expression of SASP (senescence-associated secretory phenotype) is increased in senescent cells, so the expression of MMP3, IGFBP5, and IGFBP7 was assessed at the mRNA level through qRT-PCR.
# as §1
smiles,measurement,setting,value
CCCCCCCC/C=C\CCCCCCCCCCCCCC(=O)O [nervonic acid],"cell viability, fold decrease compared to before treatment",[1],0.68±0.03 fold
same,"expression of CD11b, a mesenchymal stem cell-negative marker",[2],decreased
same,"expression of mesenchymal stem cell-positive markers CD44, CD73, CD90, CD105, and CD166",[2],restored
same,change in cell viability,[3],no change in cell viability
same,"cell size, fold decrease compared to before treatment",[4],0.47±0.03 fold
same,"IGFBP3 mRNA expression, fold compared to control group (DMSO)",[5],0.77±0.03 fold
same,"IGFBP5 mRNA expression, fold compared to control group (DMSO)",[5],0.80±0.03 fold
same,"IGFBP7 mRNA expression, fold compared to control group (DMSO)",[5],0.91±0.03 fold
same,"IL-6 mRNA expression, fold compared to control group (DMSO)",[5],0.77±0.03 fold
same,"MMP3 mRNA expression, fold compared to control group (DMSO)",[5],0.65±0.07 fold
same,senescence control effect in secondary screening,"[6]; 13 candidates tested at 25-500 μM (7 concentrations), P18 vs P5",greatest effect on controlling senescence
same,concentration exhibiting senescence control efficacy in secondary screening,[6]; secondary screening,about 200 μM
same,progression of senescence (β-galactosidase staining) compared to control group (DMSO),[7],progression of senescence was significantly inhibited
same,"IGFBP5 mRNA expression, fold compared to before treatment",[8],0.62±0.03 fold
same,"IGFBP7 mRNA expression, fold compared to before treatment",[8],0.77±0.03 fold
same,"MMP3 mRNA expression, fold compared to before treatment",[8],0.76±0.04 fold
